One test deals with A549 cells. As to the kind of experiment: Annexin V-FITC/PI staining, flow cytometry. The following applies: 72 h. It is filed as cell-based, human. How it is done:
To further depict the apoptosis induced by compound 9, apoptotic rates were analyzed by flow cytometry using Annexin V-FITC/PI staining.
According to instructions, A549 cells were stained with an annexin-V FITC apoptosis detection kit (Beijing BioDee Biotech. Co., Ltd., Beijing, China). A549 cells in the logarithmic growth phase were seeded in six-well plates (4.8 × 10^4 cells/well). After incubation for 24 h at 37 °C with 5% CO2, various concentrations (0, 2, 5, or 10 μM) of compound 9 were added to the cultures, and the plate was incubated for a further 72 h. A549 cells were collected, washed twice with cold PBS, and centrifuged at 2400 rpm for 10 min. The resulting pellet was mixed with 200 μL of binding buffer of the Annexin V-FITC kit; then, 5 μL of FITC-labeled annexin V was added and mixed gently. After incubation at 4 °C for 10 min in the dark, 5 μL of PI was added. Then, the cells were immediately analyzed with a flow cytometer at 488 nm.

Test [1] deals with HepG2, A549, MCF-7, H9c2, and MDCK cells. As to the kind of experiment: MTT assay, panel of five cell lines (summary in discussion). In kind it is cell-based. The following applies: read-out: IC50 values ranging (cell lines not specified). How it is done: A series of different esters of He were designed and synthesized. All these compounds were screened for cytotoxic activity employing a panel of five cell lines, including HepG2, A549, MCF-7, H9c2, and MDCK cells, using the MTT assay. […] Further intensive modifications at C-23 and studies are currently being performed in our research group, and the results will be reported in due course.
The antitumor activity of these compounds were evaluated on MCF-7, A549, HepG2, MDCK, and H9c2 cell lines using the MTT assay. Cells at a density of 3 × 10^3 cells/well were plated in a 96-multiwell plate in DMEM containing 10% FBS for 24 h at 37 °C with 5% CO2. Then, cells were treated for 72 h with the required concentrations (3.125, 6.25, 12.5, 25, or 50 μM) of the compounds and reference drugs (He and DDP) dissolved with the vehicle DMSO. After that, the culture substrate was replaced with 200 μL of DMEM containing 20 μL of MTT solution at 5 mg/mL and incubated for 4 h. The supernatant was removed and the dissolved formazans precipitated with 120 μL of DMSO. Wells without drugs were used as blanks. A plate reader was used to determine the absorbance at 490 nm. The above steps were repeated three times. The IC50 values were defined as the concentration of the compound which gave 50% growth inhibition, and they were calculated using Graph Pad Prism 5. […]

Test [2] has as its system MDCK (Madin–Darby canine kidney) cells. Description: MTT toxicity evaluation, MDCK. In kind it is cell-based. The following applies: Canis lupus familiaris, MDCK, 72 h treatment, non-tumor cells, read-out: Half Maximal Inhibitory Concentration (IC50) MDCK. In short, it runs like this:
(§1)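 Cells seeded at 3 × 10^3/well in DMEM/10% FBS, then treated 72 h with 3.125–50 μM compound in DMSO. MTT (5 mg/mL) added for 4 h, formazan dissolved in DMSO, absorbance read at 490 nm; inhibition relative to untreated control, IC50 as 50% growth inhibition, triplicate runs.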

In test [3] the test system is MCF-7 (human mammary cancer). Description: MTT cytotoxicity assay, MCF-7. It is filed as cell-based. The settings on record: Homo sapiens, MCF7, 72 h treatment, read-out: Half Maximal Inhibitory Concentration (IC50) MCF-7. The method in brief:
as §1

The test system of test [4] is A549 (human non-small-cell lung cancer). As to the kind of experiment: MTT cytotoxicity assay, A549. In kind it is cell-based. The following applies: Homo sapiens, A549, 72 h treatment, read-out: Half Maximal Inhibitory Concentration (IC50) A549. The method in brief: as §1

For the compound `Cc1cncc(C(=O)OCCOC(=O)[C@]23CCC(C)(C)CC2C2=CCC4[C@@]5(C)CC[C@H](O)[C@@](C)(CO)C5CC[C@@]4(C)[C@]2(C)CC3)n1` (stereo partly drawn) [Compound 9, 2-(((4aS,6aS,6bR,9R,10S,12aR)-10-Hydroxy-9-(hydroxymethyl)-2,2,6a,6b,9,12a-hexamethyl-1,2,3,4,4a,5,6,6a,6b,7,8,8a,9,10,11,12,12a,12b,13,14b-icosahydropicene-4a-carbonyl)oxy)ethyl-6-methylpyrazine-2-carboxylate], the “percentage of apoptotic cells (early and late apoptosis)” value was determined as 17.4% with A549 cells (2 μM), 72.0% in the test on A549 cells (5 μM) and 91.5% in the test on A549 cells (10 μM). In addition, the IC50 in test [1] is 3.22 to 4.48 µM; in test [2], 14.11 ± 0.04 µM; in test [3], 8.73 ± 1.49 µM; in test [4] it was 3.45 ± 0.59 µM.
